Measurements published in patent US10829506B2, “Amino- or ammonium-containing sulfonic acid, phosphonic acid and carboxylic acid derivatives and their medical use” (GRI Bio, Inc., priority 2011, dated 2020).

Columns and labels:
[1] = Body weight and toxic side-effects in the DTH study; format: in vivo, mice; conditions: oral 1 mg/kg once daily
Method: Three hours after the last dose, the antigen challenge was performed on the ears as described above. Dexamethasone was given at 1 mg/kg orally by gavage 3 h before sensitization and once daily with the final dose given 3 h prior to antigen challenge (a total of 7 administrations). All administrations were given in a volume of 10 mL/kg.
Such high dosing (overdose) is, however, not suitable for treatment of humans due to severe side effects of the corticosteroid and was only used to validate the responsiveness of the model.

BALB/cJW mice = assay: Delayed-type hypersensitivity (DTH) reaction, mouse ear swelling; format: in vivo; conditions: oral; 1a 100 mg/kg (loading dose, then maintenance doses), dexamethasone 1.0 mg/kg once daily; 24 h after ovalbumin challenge
Method: The anti-inflammatory and anti-allergic effects of compound 1a was assessed in a mouse model of skin delayed-type hypersensitivity (DTH) reactions and compared to a vehicle control and to the reference drug dexamethasone. DTH reactions are antigen-specific cell-mediated immune responses, driven primarily by T helper type 1 (Th1) cells, similar to the tuberculin immunization response. The immune reaction induced by an ovalbumin challenge to animals previously sensitized with ovalbumin in Complete Freund's Adjuvant, is characterized by swelling (edema) at the site of challenge, e.g. the mouse ear. Dexamethasone, an anti-inflammatory steroid, reduces cell-mediated immune responses and was employed to validate the responsiveness of the assay to pharmacological treatment.
Female BALB/cJW mice were bred at the University of Lodz, Lodz, Poland and housed in groups of 8 in makrolon cages with a 12 h light-dark cycle. Mice were given free access to food (Agropol S. j., Motycz, Poland) and water.
Group size was n=8 mice unless otherwise stated. Test compound was freshly prepared before administration.
Sensitization: The protein antigen, ovalbumin, was reconstituted in PBS at 4 mg/ml. […] The emulsion was tested by putting a drop of emulsion onto PBS; if the emulsion remained as a light droplet on the PBS, the emulsion was deemed ready. […]
Challenge: On the sixth day after sensitization, DTH was elicited by challenging animals subcutaneously (gauge 30 needle, B. Braun Melsungen, Melsungen, Germany) in the left ears with 10 μL of a 1% suspension of heat-aggregated ovalbumin (HOVA) (100 μg ovalbumin per mouse). […] Ear thickness was measured with a precise spring-loaded caliper (Art. No, 7309, Mltutoyo, Kawasaki, Japan) before challenge, and 24 h after challenge. […]
To account for individual variability, the increase in right ear thickness, before and 24 h after administration of PBS, was subtracted from the HOVA-induced increase in left ear thickness. The increase in ear thickness was calculated by the difference between ear thickness before and 24 h after antigen challenge. […]

RBL-2H3 cells [2] = assay: Inhibition of mast cell degranulation (β-hexosaminidase release); format: cell-based, rat; conditions: RBL-2H3 cells sensitized with anti-DNP IgE, triggered with DNP-HSA, 1 h preincubation
Excerpt: Mast cells are key effector cells involved in allergic and inflammatory diseases, and the Rat Basophilic Leukemia clone 2H3 (RBL-2H3) cell line is a commonly used model of allergen dependent immune modulator release (degranulation) in mast cells. On their surface, they express the high affinity receptor for IgE (FcεRI). Upon binding of antigen-specific IgE to the receptor, cells become sensitized to the IgE specific antigen (allergen). When IgE-sensitized cells then encounter multivalent antigen, the antigen clusters IgE-FcεRI complexes and initiates a signal transduction cascade that leads to degranulation, that is, the release of inflammatory mediators, such as cytokines, eicosanoids, histamine and enzymes. The assay can be used as a screening method to identify immune-modulating compounds, in particular compounds useful in the medical management of allergic and inflammatory diseases and asthma, β-hexosaminidase was previously shown to be released with the same kinetics as histamine (Schwartz et al., J Immunology; 123:1445-1450 (1979)), thus offering a simple means to monitor degranulation. The RBL-2H3 cell line has been successfully used to identify compounds with anti-allergic activity (Choo et al. Planta Med., 69:518-522 (2003)).
Cell Culture: RBL-2H3 cells obtained from the German Collection of Microorganisms and Cell Cultures (ACC312) (Braunschweig, Germany) were maintained in 70% Minimum Essential Medium with Earle's Salts, 20% RPMI 1640 Medium, 10% FBS and 2 mM l-glutamine in 95% air/5% CO2 at 37° C. and routinely checked for mycoplasma contamination. Cells were passaged every 3-4 days; after washing cells once with 35 ml PBS cells were incubated 8 min with 5 ml 0.05% Trypsin-EDTA solution at 37° C. Cells were removed from the incubator, 15 ml culture medium was added and cells were resuspended by repeated pipetting.
Cell seeding: cells were harvested with Trypsin-EDTA as described and 50-100 μl cell suspension seeded Into Costar CellBind 24 well cluster plates (no. 3337). Plates were kept for 30 min at RT under the sterile hood before being transferred to the incubator. Cells were used within one or two days after seeding.
For sensitization, cells for immediate use were sensitized 6-12 h after plating; cells to be used the following day were sensitized 26-38 h after plating. Culture plates were removed from the incubator and checked for cell growth and contamination. The medium was discarded and cells were sensitized with anti-DNP IgE (0.4 μg/ml) in 0.4 ml culture medium overnight. Following overnight sensitization, cells were washed with 0.8 ml pre-warmed TyB and 0.38 ml test compound or vehicle control (supplemented or not with 1% FBS) were added to duplicate wells. Samples were adjusted to contain 1% vehicle for test compounds dissolved in organic solvents. Cells were incubated for 1 h at 37° C. At the end of the incubation period, cells were routinely stimulated with 20 μl DNP-HSA (2 μg/ml; final concentration 0.1 μg/ml) diluted in TyB and cells were incubated for 15 min at 37° C. Alternatively, cells were stimulated with 20 μl […] (final concentration 0.25 μM) or 20 nM […] (final concentration 0.25 μM), both in the absence or presence of 20 nM PMA (final concentration).
Plates were removed from the incubator and immediately centrifuged at 4° C. for 5 min at 250×g and transferred to an ice bath. Aliquots of supernatants, 25 μl, were transferred to 96-well plates. Remaining supernatant was aspirated from control wells and cells were lysed in […] lysis buffer for 5 min at RT on an orbital shaker at 450 rpm under non-sterile conditions. After lysis, 25 μl aliquots of lysates were transferred to 96-well plates.
MUG substrate solution, 100 μl, were added to supernatant and lysate samples and plates were incubated 30 min at 37° C. The reaction was terminated by addition of 150 μl stop solution. Fluorescence was measured at 365 nm excitation and 440 nm emission wavelengths. […]

RBL-2H3 cells [3] = assay: Maximum tolerated concentration (cytotoxicity by lactate dehydrogenase release); format: cell-based, rat
Excerpt: A commercially available cytotoxicity test was used (Promega Cytotox-One cat. #67891).
The safety index (SI) of a test compound Is the ratio between the maximum tolerated concentration and the 1C50 and is used as a measure of the relative safety of the test compound.

phospho-Akt Ser473 = assay: Inhibition of Akt phosphorylation on Ser473 in IgE sensitized, antigen stimulated RBL-2H3 cells; format: cell-based, rat; conditions: normalized to total Akt, IgE and antigen for 15 min
Excerpt: The mast cell degranulation assay using the RBL-2H3 cell line (see Example 27) was also used to determine the status of the PI3K/Akt axis. Activation of PI3K leads to production of PIP3 on the cytosolic side of the lipid bilayer. Akt is recruited to the PIP3 domain and subsequently activated by phosphorylation on residues Ser473 and Thr308. (Franke et al., Cell 81:727-736, (1995)). Once recruited to the membrane, it is phosphorylated and activated by other kinases (Hemmings, Science 275:628-630 (1997); Hemmings. Science 276:534 (1997); Downward, Science 279:673-674 (1998); Alessi et al., EMBO J. 15:6541-6551 (1996)). Western blotting of the phosphorylated Ser473 residue on Akt (phospho-Akt Ser473) is widely used to assess the level of activation of the PI3K/Akt axis.
All buffers and solutions used for the phosphor-Akt Ser473 assay were from Meso Scale Discovery. Tris Lysis Buffer consisted of 150 mM NaCl, 20 mM Tris, pH 7.5, 1 mM EDTA, 1 mM EGTA and 1% Triton-X-100. Complete Tris Lysis Buffer was prepared prior to use by addition of protease inhibitor, phosphatase inhibitors and PMSF. The 10x Tris Wash Buffer consisted of 500 mM Tris, pH 7.5, 1.5 M NaCl and 0.2% Tween-20. Blocker A was made up of bovine serum albumin in Tris Wash Buffer. Read Buffer T was used according to manufacturer's instructions. The Whole Cell Lysate Kits used were phospho-Akt Ser473 (K11100D. Lot K0011749) and total ERK½ (K11107D, Lot K0011698) as a loading control.
Protein assay: protein concentration was determined using the BCA (bicinchoninic acid) Protein Assay kit according to the manufacturer's instructions, Briefly, duplicate 10 μl samples of bovine serum albumin (BSA) standards, blank and lysates were incubated in a 96-well plate with 0.2 ml working reagent for 30 min at 37° C. Plates cooled to room temperature for 5 min and absorbance at 562 nm measured in a multi-mode plate reader. Protein concentrations were calculated using FlexStation 3 software (SoftMax Pro version 5.3). Protein concentration of lysates was determined from a standard curve (BSA) using a linear curve fit.
Phosphoprotein assay: protein phosphorylation was determined using the MULTI-SPOT® Assay System (Meso Scale Discovery), providing simultaneous detection of phosphorylated and total proteins. Briefly, capture antibodies against phosphorylated and total protein are patterned on distinct spots in the same well of 96-well plates. Sandwich immunoassay and electrochemiluminescence detection technology are combined to measure intensity of the emitted light from phosphorylated and total protein spots. For analysis of phosphor-Akt Ser473 was performed according to the manufacturer's instructions. The optimal amount of protein was determined at 5 μg lysate per well for ERK½ and 10 μg/well for phospho-Akt Ser473. Plates were blocked with 25 μl/well Blocker A for 1 h at room temperature with gentle agitation. During this time, the lysates were thawed and diluted to the desired protein concentration in complete Tris Lysis Buffer. Plates were washed four times in Tris Wash Buffer and 25 μl lysate per well added. Plates were incubated for 1-3 h at room temperature with agitation according to the manufacturer's recommendations. Plates were washed four times with Tris Wash Buffer, followed by addition of 25 μl/well of the respective detection antibody and incubation for 1 h at room temperature, with agitation. After a final four washes with Tris Wash Buffer 150 μl/well, Read Buffer T was added, and plates read on a SECTOR Imager 6000 plate reader.
The mean background signal from each plate was subtracted from averaged raw data. The amount of total protein phosphorylaled was expressed as % phosphoprotein according to the manufacturer's (Meso Scale Discovery) Instructions.
Levels of phospho-Akt Ser473 were determined in IgE sensitized and antigen stimulated cells after treatment without (positive control) or with 1, 5 and 25 μM test compound and normalized to levels of total Akt.

SMILES | Loss in body weight [1] [%] | Inhibition of mouse ear swelling (DTH response) (BALB/cJW mice) [%] | IC50 (RBL-2H3 cells [2]) [µM] | MTC (maximum tolerated concentration) (RBL-2H3 cells [3]; highest concentration not causing cytotoxicity, LDH release) [µM] | SI (safety index, ratio MTC/IC50) (RBL-2H3 cells [3]; ratio between maximum tolerated concentration and IC50) | Level of phospho-Akt Ser473 (phospho-Akt Ser473; 1 μM) [% positive control] | Level of phospho-Akt Ser473 (phospho-Akt Ser473; 5 μM) [% positive control] | Level of phospho-Akt Ser473 (phospho-Akt Ser473; 25 μM) [% positive control]
C[C@@H]1C[C@H]2[C@@H]3CCC4=CC(=O)C=C[C@]4(C)[C@@]3(F)[C@@H](O)C[C@]2(C)[C@@]1(O)C(=O)CO [Dexamethasone, reference compound] | 4.4 | 49 |  |  |  |  |  | 
CCCCCCCCCCCCCC[N+](C)(C)CCCP(=O)([O-])O [Compound 1c, 3-N,N-Dimethylmyristylammoniopropylphosphonic Acid] |  |  | 2.8 | 200 | 71.4 | 83.2 ± 17.3 | 11.7 ± 7.7 | 2.2 ± 1.4
